We go through 1 substance from patent publication US20130158080A1, “METHODS FOR TREATING HYPERTENSION IN BLACK PATIENTS” (Takeda Pharmaceuticals U.S.A., Inc., priority 2011, published 2013).

This data set concerns subjects with moderate to severe hypertension. In words: Same study: safety and tolerability (adverse events, laboratory tests, discontinuations). The following applies: in vivo. More on the design: species or system human. The source says:
Randomization was stratified by subject's race: Black and non-Black. Before initiation of treatment, all subjects participated in a 2-week, single-blind, placebo Run-in Period (Days −14 to −1). […] Subjects taking previous antihypertensive agents were required to participate in a 3 week Washout Period (Days −21 to −1).
Safety variables included adverse events, vital signs (including orthostatic vital signs), 12-lead electrocardiogram (ECG) findings, and clinical laboratory test results.
Treatment-emergent adverse events (TEAEs) were tabulated, and vital signs and 12-lead ECG findings were summarized with descriptive statistics. All safety data were presented in the listings.

“azilsartan medoxomil potassium plus chlorthalidone [TAK-491CLD]”: the “Mean increases in serum creatinine, blood urea nitrogen, and serum uric acid” value is “more common”.
